Reference: patent publication US8192962B2, “Processes for detecting toxic substances” (Daikin Industries, Ltd., priority 2001, dated 2012)

Test system: Transport facilitation protein genes
Experiment: DNA chip mRNA expression in yeast, transport facilitation protein genes (Table 5)
Type: cell-based, Saccharomyces cerevisiae S288C
Outline: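 Values are treated/untreated fluorescence ratios from a whole-genome yeast DNA chip hybridized over 12 hours at 65° C with Cy3- or Cy5-labelled cDNA from poly(A) mRNA. Log-phase S288C yeast in YPD at 25° C had received a single toxic chemical for two hours, dosed to slow growth without killing.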

manganese ethylenebis(dithiocarbamate) [(8)]
The level of expressed mRNA in the presence of chemical substance/The level of expressed mRNA in the absence of chemical substance (yeast gene YGR224W): 0.6 | The level of expressed mRNA in the presence of chemical substance/The level of expressed mRNA in the absence of chemical substance (yeast gene YGR260W): 0.5 | The level of expressed mRNA in the presence of chemical substance/The level of expressed mRNA in the absence of chemical substance (yeast gene YGR281W): 0.7 | The level of expressed mRNA in the presence of chemical substance/The level of expressed mRNA in the absence of chemical substance (yeast gene YHL035C): 1.1 | The level of expressed mRNA in the presence of chemical substance/The level of expressed mRNA in the absence of chemical substance (yeast gene YHL040C): 1.5 | The level of expressed mRNA in the presence of chemical substance/The level of expressed mRNA in the absence of chemical substance (yeast gene YHL047C): 1.5 | The level of expressed mRNA in the presence of chemical substance/The level of expressed mRNA in the absence of chemical substance (yeast gene YHR026W): 1.6 | The level of expressed mRNA in the presence of chemical substance/The level of expressed mRNA in the absence of chemical substance (yeast gene YHR092C): 1.5 | The level of expressed mRNA in the presence of chemical substance/The level of expressed mRNA in the absence of chemical substance (yeast gene YHR094C): 1.2 | The level of expressed mRNA in the presence of chemical substance/The level of expressed mRNA in the absence of chemical substance (yeast gene YHR175W): 0.9 | The level of expressed mRNA in the presence of chemical substance/The level of expressed mRNA in the absence of chemical substance (yeast gene YIL006W): 0.6 | The level of expressed mRNA in the presence of chemical substance/The level of expressed mRNA in the absence of chemical substance (yeast gene YIL022W): 0.8 | The level of expressed mRNA in the presence of chemical substance/The level of expressed mRNA in the absence of chemical substance (yeast gene YIL056W): 0.7 | The level of expressed mRNA in the presence of chemical substance/The level of expressed mRNA in the absence of chemical substance (yeast gene YIL088C): 0.8 | The level of expressed mRNA in the presence of chemical substance/The level of expressed mRNA in the absence of chemical substance (yeast gene YJL034W): 1.5 | The level of expressed mRNA in the presence of chemical substance/The level of expressed mRNA in the absence of chemical substance (yeast gene YJL212C): 0.7 | The level of expressed mRNA in the presence of chemical substance/The level of expressed mRNA in the absence of chemical substance (yeast gene YJL219W): 1.5 | The level of expressed mRNA in the presence of chemical substance/The level of expressed mRNA in the absence of chemical substance (yeast gene YJR077C): 0.8 | The level of expressed mRNA in the presence of chemical substance/The level of expressed mRNA in the absence of chemical substance (yeast gene YJR106W): 0.9 | The level of expressed mRNA in the presence of chemical substance/The level of expressed mRNA in the absence of chemical substance (yeast gene YJR121W): 0.7 | The level of expressed mRNA in the presence of chemical substance/The level of expressed mRNA in the absence of chemical substance (yeast gene YKL016C): 1.6 | The level of expressed mRNA in the presence of chemical substance/The level of expressed mRNA in the absence of chemical substance (yeast gene YKL146W): 0.8 | The level of expressed mRNA in the presence of chemical substance/The level of expressed mRNA in the absence of chemical substance (yeast gene YKR039W): 1.0 | The level of expressed mRNA in the presence of chemical substance/The level of expressed mRNA in the absence of chemical substance (yeast gene YKR067W): 0.8 | The level of expressed mRNA in the presence of chemical substance/The level of expressed mRNA in the absence of chemical substance (yeast gene YLL028W): 0.7 | The level of expressed mRNA in the presence of chemical substance/The level of expressed mRNA in the absence of chemical substance (yeast gene YLR081W): 0.9 | The level of expressed mRNA in the presence of chemical substance/The level of expressed mRNA in the absence of chemical substance (yeast gene YLR295C): 1.2 | The level of expressed mRNA in the presence of chemical substance/The level of expressed mRNA in the absence of chemical substance (yeast gene YLR348C): 0.9 | The level of expressed mRNA in the presence of chemical substance/The level of expressed mRNA in the absence of chemical substance (yeast gene YLR378C): 0.5 | The level of expressed mRNA in the presence of chemical substance/The level of expressed mRNA in the absence of chemical substance (yeast gene YMR011W): 1.1 | The level of expressed mRNA in the presence of chemical substance/The level of expressed mRNA in the absence of chemical substance (yeast gene YMR162C): 0.8 | The level of expressed mRNA in the presence of chemical substance/The level of expressed mRNA in the absence of chemical substance (yeast gene YMR203W): 0.7 | The level of expressed mRNA in the presence of chemical substance/The level of expressed mRNA in the absence of chemical substance (yeast gene YNL055C): 0.7 | The level of expressed mRNA in the presence of chemical substance/The level of expressed mRNA in the absence of chemical substance (yeast gene YNL259C): 1.5 | The level of expressed mRNA in the presence of chemical substance/The level of expressed mRNA in the absence of chemical substance (yeast gene YNR072W): 0.9 | The level of expressed mRNA in the presence of chemical substance/The level of expressed mRNA in the absence of chemical substance (yeast gene YOL119C): 2.0 | The level of expressed mRNA in the presence of chemical substance/The level of expressed mRNA in the absence of chemical substance (yeast gene YOL156W): 1.0 | The level of expressed mRNA in the presence of chemical substance/The level of expressed mRNA in the absence of chemical substance (yeast gene YOL163W): 1.1 | The level of expressed mRNA in the presence of chemical substance/The level of expressed mRNA in the absence of chemical substance (yeast gene YOR035C): 1.0 | The level of expressed mRNA in the presence of chemical substance/The level of expressed mRNA in the absence of chemical substance (yeast gene YOR130C): 0.8 | The level of expressed mRNA in the presence of chemical substance/The level of expressed mRNA in the absence of chemical substance (yeast gene YOR153W): 0.5 | The level of expressed mRNA in the presence of chemical substance/The level of expressed mRNA in the absence of chemical substance (yeast gene YOR273C): 0.6 | The level of expressed mRNA in the presence of chemical substance/The level of expressed mRNA in the absence of chemical substance (yeast gene YOR316C): 0.8 | The level of expressed mRNA in the presence of chemical substance/The level of expressed mRNA in the absence of chemical substance (yeast gene YOR332W): 1.5 | The level of expressed mRNA in the presence of chemical substance/The level of expressed mRNA in the absence of chemical substance (yeast gene YOR348C): 0.8 | The level of expressed mRNA in the presence of chemical substance/The level of expressed mRNA in the absence of chemical substance (yeast gene YPL036W): 0.5 | The level of expressed mRNA in the presence of chemical substance/The level of expressed mRNA in the absence of chemical substance (yeast gene YPL134C): 1.3 | The level of expressed mRNA in the presence of chemical substance/The level of expressed mRNA in the absence of chemical substance (yeast gene YPL271W): 0.9 | The level of expressed mRNA in the presence of chemical substance/The level of expressed mRNA in the absence of chemical substance (yeast gene YPR192W): 0.6 | The level of expressed mRNA in the presence of chemical substance/The level of expressed mRNA in the absence of chemical substance (yeast gene YPR194C): 1.0
